This is an account of results in publication PMC5962878, “The Somatostatin Receptor-4 Agonist J-2156 Alleviates Mechanical Hypersensitivity in a Rat Model of Breast Cancer Induced Bone Pain” (Frontiers in Pharmacology, 2018).

Test [1] deals with T1, human SST4 receptor (H-SST4) (Homo sapiens, UniProt P31391).
T1 construct: gene SSTR4; H4 cells (Perkin Elmer) for cAMP
The test can be described thus: LANCE cAMP, inhibition of forskolin-stimulated cAMP, H4 cells. It counts as cell-based. To be noted: read-out: Mean (±SEM) IC50 values (nM) / H-SST4. (In general: Time-resolved FRET reads energy transfer from a long-lived donor to a nearby acceptor.)

For test [2], the target named is T2, human somatostatin receptor type 5 (H-SST5) (Homo sapiens, UniProt P35346).
T2 construct: gene SSTR5; stably expressed in CHO-K1, membranes from Perkin Elmer; printed catalogue number ES-522-M400UA is the same as for type 3 (likely misprint)
T2 sequence (P35346 whole entry): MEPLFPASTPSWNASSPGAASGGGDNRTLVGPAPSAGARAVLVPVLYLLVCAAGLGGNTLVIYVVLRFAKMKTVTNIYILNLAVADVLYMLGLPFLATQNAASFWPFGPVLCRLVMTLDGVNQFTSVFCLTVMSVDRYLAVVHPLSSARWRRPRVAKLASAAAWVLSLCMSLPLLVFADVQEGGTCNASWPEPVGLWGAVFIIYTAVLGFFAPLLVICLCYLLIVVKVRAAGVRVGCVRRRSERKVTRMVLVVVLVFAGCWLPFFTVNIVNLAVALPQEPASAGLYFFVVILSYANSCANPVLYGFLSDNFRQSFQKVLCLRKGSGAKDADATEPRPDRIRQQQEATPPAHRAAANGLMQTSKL
The test can be described thus: radioligand competition, CHO-K1 membranes, […]-Tyr3-somatostatin-14. As to conditions: read-out: Mean (±SEM) Ki values (nM) / H-SST5 receptor. The class given is binding. In general terms: In a radioligand displacement assay an active substance lowers the binding of a labelled ligand.

The target of test [3] is T3, human somatostatin receptor type 3 (H-SST3) (Homo sapiens, UniProt P32745).
T3 construct: gene SSTR3; stably expressed in CHO-K1, membranes from Perkin Elmer
T3 sequence (P32745 whole entry): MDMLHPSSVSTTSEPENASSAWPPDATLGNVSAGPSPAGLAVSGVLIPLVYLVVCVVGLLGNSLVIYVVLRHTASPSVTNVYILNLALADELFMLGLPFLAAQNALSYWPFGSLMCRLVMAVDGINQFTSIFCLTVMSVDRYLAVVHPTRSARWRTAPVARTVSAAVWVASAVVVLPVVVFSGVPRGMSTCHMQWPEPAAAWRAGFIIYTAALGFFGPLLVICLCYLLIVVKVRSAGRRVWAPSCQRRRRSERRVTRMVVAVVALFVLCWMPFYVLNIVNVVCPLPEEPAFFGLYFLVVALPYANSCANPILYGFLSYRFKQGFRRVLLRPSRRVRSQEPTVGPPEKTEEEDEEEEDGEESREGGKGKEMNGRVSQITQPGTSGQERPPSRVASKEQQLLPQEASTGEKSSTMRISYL
The description is as above. The class given is binding. As to conditions: read-out: Mean (±SEM) Ki values (nM) / H-SST3 receptor.

Test [4] concerns the target T4, human somatostatin receptor type 1 (H-SST1) (Homo sapiens, UniProt P30872).
T4 construct: gene SSTR1; stably expressed in CHO-K1, membranes from Perkin Elmer
Described as above. It counts as binding. To be noted: read-out: Mean (±SEM) Ki values (nM) / H-SST1 receptor.

The target in test [5] is T5, human somatostatin receptor type 2 (H-SST2) (Homo sapiens, UniProt P30874).
T5 construct: gene SSTR2; stably expressed in CHO-K1, membranes from Perkin Elmer
T5 sequence (P30874 whole entry): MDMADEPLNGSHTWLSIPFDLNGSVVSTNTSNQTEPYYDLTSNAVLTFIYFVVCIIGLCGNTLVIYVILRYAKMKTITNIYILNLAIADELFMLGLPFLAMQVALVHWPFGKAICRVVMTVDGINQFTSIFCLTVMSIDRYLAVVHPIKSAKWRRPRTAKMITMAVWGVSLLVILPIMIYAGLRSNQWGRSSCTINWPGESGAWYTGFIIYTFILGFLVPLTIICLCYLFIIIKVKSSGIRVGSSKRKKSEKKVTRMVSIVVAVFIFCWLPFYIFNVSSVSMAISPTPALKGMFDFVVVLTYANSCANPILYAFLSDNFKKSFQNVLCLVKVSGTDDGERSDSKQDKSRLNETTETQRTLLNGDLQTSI
Described as above. To be noted: read-out: Mean (±SEM) Ki values (nM) / H-SST2 receptor. The class given is binding.

Test [6] deals with T6, rat SST4 receptor (R-SST4) (Rattus norvegicus, UniProt P30937).
T6 construct: gene Sstr4; H4 cells for cAMP
T6 sequence (P30937 whole entry): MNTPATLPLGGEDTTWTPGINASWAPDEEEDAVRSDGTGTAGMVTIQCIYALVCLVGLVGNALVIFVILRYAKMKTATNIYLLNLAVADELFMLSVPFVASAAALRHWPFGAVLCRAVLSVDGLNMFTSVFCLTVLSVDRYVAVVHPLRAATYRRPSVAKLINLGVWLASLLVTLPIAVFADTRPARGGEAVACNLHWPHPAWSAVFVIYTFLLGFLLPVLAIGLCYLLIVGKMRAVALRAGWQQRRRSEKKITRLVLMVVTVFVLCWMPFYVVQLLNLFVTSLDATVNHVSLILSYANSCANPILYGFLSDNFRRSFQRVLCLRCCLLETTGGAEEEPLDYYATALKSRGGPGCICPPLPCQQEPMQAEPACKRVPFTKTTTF
The test can be described thus: LANCE cAMP, inhibition of forskolin-stimulated cAMP, H4 cells. It counts as cell-based. As to conditions: read-out: Mean (±SEM) IC50 values (nM) / R-SST4.

In test [7] the target is T1, human SST4 receptor (H-SST4). Put plainly: radioligand competition, CHO-K1 membranes, […]-Tyr3-somatostatin-14. The class given is binding. To be noted: read-out: Mean (±SEM) Ki values (nM) / H-SST4 receptor.
Test [8] concerns the target T6, rat SST4 receptor (R-SST4). Described as above. The class given is binding. As to conditions: read-out: Mean (±SEM) Ki values (nM) / R-SST4 receptor.

Molecules are shown by their SMILES.

T1 sequence (P31391 whole entry): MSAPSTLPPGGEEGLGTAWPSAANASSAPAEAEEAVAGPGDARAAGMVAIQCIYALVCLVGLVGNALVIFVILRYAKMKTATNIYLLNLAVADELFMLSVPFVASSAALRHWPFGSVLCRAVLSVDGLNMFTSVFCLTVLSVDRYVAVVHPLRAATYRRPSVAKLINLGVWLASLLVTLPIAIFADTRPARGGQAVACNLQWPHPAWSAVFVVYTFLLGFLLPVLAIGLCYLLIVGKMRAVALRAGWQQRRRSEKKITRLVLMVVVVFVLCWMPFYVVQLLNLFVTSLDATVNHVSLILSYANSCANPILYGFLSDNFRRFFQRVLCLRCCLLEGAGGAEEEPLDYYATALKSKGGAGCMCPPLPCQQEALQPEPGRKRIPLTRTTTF
T4 sequence (P30872 whole entry): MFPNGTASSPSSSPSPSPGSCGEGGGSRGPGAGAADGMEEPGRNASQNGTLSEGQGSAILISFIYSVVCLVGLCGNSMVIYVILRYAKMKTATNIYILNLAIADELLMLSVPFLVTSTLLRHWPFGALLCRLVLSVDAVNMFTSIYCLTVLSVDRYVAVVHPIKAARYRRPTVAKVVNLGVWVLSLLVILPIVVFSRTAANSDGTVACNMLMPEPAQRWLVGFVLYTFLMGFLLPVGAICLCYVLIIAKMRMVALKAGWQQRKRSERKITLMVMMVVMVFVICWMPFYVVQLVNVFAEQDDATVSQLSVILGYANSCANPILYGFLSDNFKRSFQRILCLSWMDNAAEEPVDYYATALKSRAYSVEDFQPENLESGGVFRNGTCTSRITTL

Regarding `Cc1ccc(S(=O)(=O)N[C@@H](CCN)C(=O)N[C@@H](Cc2ccccc2)C(N)=O)c2ccccc12` [J-2156, (1′S,2S)-4amino-N-(1′-carbamoyl-2′-phenylethyl)-2-(4″-methyl-1″-naphthalenesulfonylamino)butanamide], the figures for the IC50 in test [1] and in test [6] were 0.05 ± 0.01 nM and 0.07 ± 0.005 nM, respectively. Besides, the Ki in test [2] worked out at 468 ± 156 nM; in test [3], 234 ± 112 nM; in test [4] it was 589 ± 266 nM; in test [5], 25100 nM; in test [7], 0.56 ± 0.1 nM; in test [8], 0.89 ± 0.64 nM.
